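How tested: cells in 96-well plates exposed to compound for 48 hours at five concentrations. Abbreviation: GI50, concentration required for 50% inhibition of growth.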 The source made the active and inactive calls. No stated cut-off is given here; in the data, active = GI50 up to about 1.1 µM and inactive = higher.
What was measured:
Experiment in all cases: NCI anticancer screen, dose series, 48 h
[1] = test system: Malme-3M
[2] = test system: SR
[3] = test system: HL-60
[4] = test system: NCI-H23
[5] = test system: PC-3
[6] = test system: M14
[7] = test system: U-251
[8] = test system: BT-549
[9] = test system: SK-MEL-5
[10] = test system: MDA-MB-231
[11] = test system: K562
[12] = test system: HT-29
[13] = test system: NCI-H460
[14] = test system: 786-0
[15] = test system: NCI/ADR-RES
[16] = test system: SW-620
[17] = test system: ACHN
[18] = test system: NCI-H226
[19] = test system: OVCAR-4
[20] = test system: SN12C
[21] = test system: UO-31
[22] = test system: RXF 393
[23] = test system: EKVX
[24] = test system: HCT-15
[25] = test system: SF-268
[26] = test system: A549
[27] = test system: SNB-75
[28] = test system: SK-MEL-28
[29] = test system: HCT-116
[30] = test system: A498
[31] = test system: CCRF-CEM
[32] = test system: TK-10
[33] = test system: LOX IMVI
[34] = test system: UACC-257
[35] = test system: HCC 2998
[36] = test system: DU-145
[37] = test system: MDA-MB-435
[38] = test system: Hs-578T
[39] = test system: SF-295
[40] = test system: HOP-92
[41] = test system: RPMI-8226
[42] = test system: SK-MEL-2
[43] = test system: COLO 205
[44] = test system: SNB-19
[45] = test system: OVCAR-8
[46] = test system: HOP-62
[47] = test system: MDA-N
[48] = test system: SK-OV-3
[49] = test system: OVCAR-5
[50] = test system: CAKI-1
[51] = test system: T47D
[52] = test system: OVCAR-3
[53] = test system: NCI-H522
[54] = test system: SF-539
[55] = test system: KM12
[56] = test system: MOLT-4
[57] = test system: MCF7
[58] = test system: UACC-62
[59] = test system: IGROV-1

Cc1sc(/N=C/c2c[nH]c3ccccc23)c(C#N)c1C
GI50 [1]: 25900 nM (inactive)
GI50 [2]: 18200 nM (inactive)
GI50 [3]: 21200 nM (inactive)
GI50 [4]: 54100 nM (inactive)
GI50 [5]: 45700 nM (inactive)
GI50 [6]: 22000 nM (inactive)
GI50 [7]: 21500 nM (inactive)
GI50 [8]: 42100 nM (inactive)
GI50 [9]: 18400 nM (inactive)
GI50 [10]: 36400 nM (inactive)
GI50 [11]: 16300 nM (inactive)
GI50 [12]: 6890 nM (inactive)
GI50 [13]: 33100 nM (inactive)
GI50 [14]: 27400 nM (inactive)
GI50 [15]: 74600 nM (inactive)
GI50 [16]: 39700 nM (inactive)
GI50 [17]: 29600 nM (inactive)
GI50 [18]: 30500 nM (inactive)
GI50 [19]: 35200 nM (inactive)
GI50 [20]: 74300 nM (inactive)
GI50 [21]: 48000 nM (inactive)
GI50 [22]: 22300 nM (inactive)
GI50 [23]: 67900 nM (inactive)
GI50 [24]: 24000 nM
GI50 [25]: 85300 nM (inactive)
GI50 [26]: 65000 nM (inactive)
GI50 [27]: 37100 nM (inactive)
GI50 [28]: > 100000 nM (inactive)
GI50 [29]: 23400 nM (inactive)
GI50 [30]: 28700 nM (inactive)
GI50 [31]: 15300 nM (inactive)
GI50 [32]: 20000 nM (inactive)
GI50 [33]: 34600 nM (inactive)
GI50 [34]: 44600 nM (inactive)
GI50 [35]: 14900 nM (inactive)
GI50 [36]: 55600 nM (inactive)
GI50 [37]: 32300 nM (inactive)
GI50 [38]: 58100 nM (inactive)
GI50 [39]: 28300 nM (inactive)
GI50 [40]: 45700 nM (inactive)
GI50 [41]: 19700 nM (inactive)
GI50 [42]: 30500 nM (inactive)
GI50 [43]: > 100000 nM (inactive)
GI50 [44]: 61200 nM (inactive)
GI50 [45]: 45500 nM (inactive)
GI50 [46]: 34200 nM (inactive)
GI50 [47]: 53700 nM (inactive)
GI50 [48]: 88700 nM (inactive)
GI50 [49]: > 100000 nM (inactive)
GI50 [50]: 56200 nM (inactive)
GI50 [51]: 18600 nM (inactive)
GI50 [52]: 11200 nM (inactive)
GI50 [53]: 27900 nM (inactive)
GI50 [54]: 40400 nM (inactive)
GI50 [55]: 13700 nM (inactive)
GI50 [56]: 23000 nM (inactive)
GI50 [57]: 27700 nM (inactive)
GI50 [58]: 20700 nM (inactive)
GI50 [59]: 21700 nM (inactive)

CSc1cc(-c2ccccn2)nc(-c2ccccn2)c1
GI50 [1]: 102 nM (active)
GI50 [2]: 40.5 nM (active)
GI50 [3]: 49.2 nM (active)
GI50 [4]: 398 nM (active)
GI50 [5]: 92 nM (active)
GI50 [6]: 69.5 nM (active)
GI50 [7]: 76.6 nM (active)
GI50 [8]: 53.6 nM (active)
GI50 [9]: 126 nM (active)
GI50 [10]: 494 nM (active)
GI50 [11]: 248 nM (active)
GI50 [12]: 149 nM (active)
GI50 [13]: 54.1 nM (active)
GI50 [14]: 54.6 nM (active)
GI50 [15]: 94.4 nM (active)
GI50 [16]: 126 nM (active)
GI50 [17]: 33.4 nM (active)
GI50 [18]: 39.5 nM (active)
GI50 [19]: 82.8 nM (active)
GI50 [20]: 99.1 nM (active)
GI50 [21]: 60.7 nM (active)
GI50 [22]: 255 nM (active)
GI50 [23]: 90.6 nM (active)
GI50 [24]: 32.4 nM
GI50 [25]: 55.9 nM (active)
GI50 [26]: 137 nM (active)
GI50 [27]: 689 nM (active)
GI50 [28]: 73.6 nM (active)
GI50 [29]: 68.2 nM (active)
GI50 [30]: 769 nM (active)
GI50 [31]: 52.7 nM (active)
GI50 [32]: 40.1 nM (active)
GI50 [33]: 43 nM (active)
GI50 [34]: 481 nM (active)
GI50 [35]: 51.8 nM (active)
GI50 [36]: 97 nM (active)
GI50 [37]: 327 nM (active)
GI50 [38]: 3100 nM (inactive)
GI50 [39]: 56.6 nM (active)
GI50 [40]: 95.9 nM (active)
GI50 [41]: 383 nM (active)
GI50 [42]: 552 nM (active)
GI50 [43]: 125 nM (active)
GI50 [44]: 564 nM (active)
GI50 [45]: 84.5 nM (active)
GI50 [46]: 32.9 nM (active)
GI50 [47]: 452 nM (active)
GI50 [48]: 255 nM (active)
GI50 [49]: 179 nM (active)
GI50 [50]: 65 nM (active)
GI50 [51]: 346 nM (active)
GI50 [52]: 27.9 nM (active)
GI50 [53]: 385 nM (active)
GI50 [54]: 171 nM (active)
GI50 [55]: 124 nM (active)
GI50 [56]: 42.1 nM (active)
GI50 [57]: 324 nM (active)
GI50 [58]: 176 nM (active)
GI50 [59]: 102 nM (active)

CN1CCN(C2=C(Cl)C(=O)c3c(O)ccc(O)c3C2=O)CC1
GI50 [1]: 196 nM (active)
GI50 [2]: 94 nM (active)
GI50 [3]: 103 nM (active)
GI50 [4]: 610 nM (active)
GI50 [5]: 1730 nM (inactive)
GI50 [6]: 281 nM (active)
GI50 [7]: 1720 nM (inactive)
GI50 [8]: 486 nM (active)
GI50 [9]: 502 nM (active)
GI50 [10]: 516 nM (active)
GI50 [11]: 217 nM (active)
GI50 [12]: 359 nM (active)
GI50 [13]: 1940 nM (inactive)
GI50 [14]: 244 nM (active)
GI50 [15]: 632 nM (active)
GI50 [16]: 187 nM (active)
GI50 [17]: 286 nM (active)
GI50 [18]: 2000 nM (inactive)
GI50 [19]: 377 nM (active)
GI50 [20]: 826 nM (active)
GI50 [21]: 646 nM (active)
GI50 [22]: 180 nM (active)
GI50 [23]: 1660 nM (inactive)
GI50 [24]: 176 nM
GI50 [25]: 1850 nM (inactive)
GI50 [26]: 2160 nM (inactive)
GI50 [27]: 2030 nM (inactive)
GI50 [28]: 995 nM (active)
GI50 [29]: 234 nM (active)
GI50 [30]: 2520 nM (inactive)
GI50 [31]: 105 nM (active)
GI50 [32]: 514 nM (active)
GI50 [33]: 635 nM (active)
GI50 [34]: 689 nM (active)
GI50 [35]: 2040 nM (inactive)
GI50 [36]: 1780 nM (inactive)
GI50 [37]: 214 nM (active)
GI50 [38]: 2410 nM (inactive)
GI50 [39]: 1780 nM (inactive)
GI50 [40]: 223 nM (active)
GI50 [41]: 1440 nM (inactive)
GI50 [42]: 1210 nM (inactive)
GI50 [43]: 182 nM (active)
GI50 [44]: 4990 nM (inactive)
GI50 [45]: 223 nM (active)
GI50 [46]: 1920 nM (inactive)
GI50 [47]: 350 nM (active)
GI50 [48]: 5620 nM (inactive)
GI50 [49]: 1580 nM (inactive)
GI50 [50]: 546 nM (active)
GI50 [51]: 551 nM (active)
GI50 [52]: 542 nM (active)
GI50 [53]: 243 nM (active)
GI50 [54]: 959 nM (active)
GI50 [55]: 1990 nM (inactive)
GI50 [56]: 130 nM (active)
GI50 [57]: 240 nM (active)
GI50 [58]: 1320 nM (inactive)
GI50 [59]: 1300 nM (inactive)

— ChEMBL document CHEMBL1201862, “PubChem BioAssay data set” (2004)
